Source: patent US20130302389A1, “COSMETIC COMPOSITION CONTAINING AT LEAST TWO OSMOLYTES WITH A MOISTURIZING OR ANTIAGING EFFECT” (LVMH Recherche, priority 2008, published 2013)

System: HSPA1A
Assay: Stimulation of HSPA1A mRNA expression in normal human epidermal keratinocytes (RT-QPCR)
Assay type: cell-based
Conditions: 24 hours, mRNA by RT-QPCR relative to G3PDH, control (untreated cells) normalized to 100% expression
Protocol: Cell type: normal human keratinocytes (NHK) as an immersed monolayer, strongly post-confluent and at the third subculture.
Culture medium: low-calcium K-SFM (Invitrogen) supplemented with Epidermal Growth Factor (EGF Sigma) at 2.5 ng/ml, pituitary extract (EP Invitrogen) 2.5 μg/ml and gentamicin (Sigma) 25 μg/ml. For the treatments with the various compounds, this medium is replaced with K-SFM medium not supplemented with EGF and EP.
Treatment time: 24 hours with the various kosmotropes, and other molecules or extracts, and combinations thereof.
Test compounds: the taurine, D-trehalose, inositol and betaine (Sigma) are dissolved in the culture medium and tested at concentrations of 166 and 500 μg/ml, or, when this was not possible for reasons of solubility or cytotoxicity, at substantially lower concentrations.
The combination of these four compounds in proportions of 1/1/1/1 by weight is tested at the same concentrations.
Assays of the mRNA of HMSPA1A by RT-QPCR: at the end of the incubation period, the culture supernatants are removed and the cells, rinsed with PBS (Invitrogen), are covered with a solution of Tri-reagent (Sigma) and then frozen immediately at −80° C.
Extraction of the total RNA is performed according to the protocol of the Tri-reagent supplier (Sigma) and removal of the traces of DNA is performed with the DNA-free kit (Ambion). The reverse transcription reaction is performed using Oligo(dT) primers and the enzyme superscript II (Gibco).
The PCR (Polymerase Chain Reaction) reactions are performed using a Light Cycler (Roche Molecular Systems, Inc.) and according to the procedures recommended by the supplier. The pairs of primers used in this study allow amplification of the following fragments:
Homo sapiens heat shock protein HSP70 protein 1A (abbreviation HSPA1A; Gene bank NM 02045; fragment size 213 bp) and liver glyceraldehyde 3-phosphate dehydrogenase 1A (abbreviation G3PDH; Gene bank NM 02046; fragment size 269 bp) serving as the reference gene (caretaker gene) for determining the relative expression of the target HSPA1A.
The reaction medium (10 μl) is formed from the primers for the two target mRNAs (HSPA1A and G3PDH), 2.5 μl of tenfold-diluted cDNA, reaction mixture (Roche) containing the enzyme Taq DNA polymerase, SYBR Green I fluorochrome (which becomes incorporated into the double-stranded DNA during the elongation step), and MgCl2.
The incorporation of fluorescence into the amplified DNA is measured continuously in the course of the PCR cycles. For the same used marker, the later a sample leaves (high number of cycles), the lower the initial number of copies of mRNA.
Normal human keratinocyte cultures are treated for 24 hours with noncytotoxic doses (166 and 500 μg/ml) of each of the four osmolytes separately: taurine, D-trehalose, inositol and betaine. The transcriptional expression of HMSPA1A is measured by RT-PCR.
The control (untreated cells) is normalized to correspond to 100% expression.

`O[C@H]1[C@H](O)[C@@H](O)[C@H](O)[C@@H](O)[C@H]1O` [inositol] was tested, and the “stimulation of expression of HSPA1A” value (166 μg/ml) was 90% and the “stimulation of expression of HSPA1A” value (500 μg/ml) was 101%.

In the case of `C[N+](C)(C)CC(=O)O` [betaine], the “stimulation of expression of HSPA1A” value (166 μg/ml) is reported as 52% and the “stimulation of expression of HSPA1A” value (500 μg/ml) is reported as 85%.

For `NCCS(=O)O` [Hypotaurine, hypotaurine], the “stimulation of expression of HSPA1A” value (166 μg/ml) was 379%.

For `OC[C@H]1O[C@H](O[C@H]2O[C@H](CO)[C@@H](O)[C@H](O)[C@H]2O)[C@H](O)[C@@H](O)[C@@H]1O` [D-trehalose], the “stimulation of expression of HSPA1A” value (166 μg/ml) was 142% and the “stimulation of expression of HSPA1A” value (500 μg/ml) was 181%.

`NCCS(=O)(=O)O` [taurine] was tested, and the “stimulation of expression of HSPA1A” value (166 μg/ml) was 171% and the “stimulation of expression of HSPA1A” value (500 μg/ml) was 139%.
